Laboratory results published in patent US20250049830A1, “PHARMACEUTICAL COMPOSITION FOR PREVENTING OR TREATING CANCER, COMPRISING SGLT-2 INHIBITOR AND GOSSYPOL” (HAIM BIO., LTD., priority 2019, published 2025).
“Also recorded” adds a separate entry of the source.

Experiments:
Type in all cases: cell-based, human
[1] = system: lung cancer line A549 cells; assay: Oxygen consumption rate (OCR) during mitochondrial respiration, Seahorse XF24, A549; conditions: SGLT-2 inhibitor 50 μM, gossypol 5 μM, phenformin 10 μM, alone or in combination, overnight, FIG. 10
Method: In order to measure mitochondrial respiration, which is the main energy metabolic process of cells, the present inventors analyzed cellular oxygen consumption rate (OCR) by measuring intracellular oxygen concentration. The oxygen consumption rate that occurs during energy metabolism can be a measure of how actively cancer cell division occurs during the metabolic process of cancer cells. 1 mL of XF Calibrant buffer (Agilent Technologies) was added to a sensor cartridge (Agilent Technologies, Palo Alto, CA, USA) and incubated in a non-CO2 incubator overnight at 37° C. […] In addition, the XF24 microplate was placed in the Agilent seahorse XF24 (Agilent Technologies) instrument, and OCR was measured. Here, the measured values were compared with percentage values based on picomoles per minute (pM/min).

U87 tumor spheroids = assay: Tumor spheroid size/diameter of U87 cell line after drug administration; conditions: for size of the tumor spheroid cells (cell photographs): 14 days, gossypol 5 μM, phenformin 10 μM; for size of the cells (cell photographs): SGLT-2 inhibitor alone or in combination with gossypol and phenformin, FIG. 9
Method: The U87 cell line cells prepared according to the method of Example 1 were seeded into a 96-well plate at a density of 1.0×10^2 cells/well in DMEM media containing 2% Matrigel (Corning, NY, USA), and stabilized in a 5% CO2 incubator at 37° C. for 3 days to form tumor spheroids. After stabilization, the cells were cultured in a 5% CO2 incubator at 37° C. for 14 days. […] Referring to FIGS. 6b, 7b and 8b, the rate of change in diameter of the spheroid in the graph was calculated as a percentage based on the change in the average diameter after administration of each drug compared to the average diameter of tumor spheroid cells seeded in the 96-well plate.

[2] = system: lung cancer cell line A549; assay: Cell viability (Cell Counting Kit-8) of lung cancer cell line A549 after drug treatment; conditions: SGLT-2 inhibitor 50 μM, gossypol 5 μM, phenformin 10 μM, FIG. 1c
Method: (§1) Each of the cell lines was cultured according to the ATCC guidelines in 10% FBS-containing RPMI 1640, DMEM, or Eagle's MEM medium supplemented with 1% penicillin-streptomycin (Gibco) in a 5% CO2 incubator (HERAcell 150i, Thermo Scientific, Waltham, MA, USA) at 37° C. and was used in the experiment.
The lung cancer cell line A549 cells prepared by the method of Example 1 were seeded into a 96-well plate at a concentration of 1×10^4 cells/well and cultured overnight at 37° C. in a 5% CO2 environment. […]
Thereafter, 100 μL of each cell culture and 10 μL of incubation buffer (CCK) were mixed together, placed in a 96-well plate, and incubated at room temperature for 1 hour, and then the absorbance was measured at a wavelength of 450 nm using a spectrophotometer (Synergy HTX Multi-Reader, BioTek, Winooski, VT, USA). At the same time, the number of cells in each sample was measured with a cell viability assay kit (Cell Counting Kit-8), and the measured value was calculated as a percentage of the number of cells in the negative control group to compare the number of cells between the samples. All experiments were repeated several times and the measured values were averaged.

[3] = system: brain cancer cell line U87; assay: Cell viability (Cell Counting Kit-8) of brain cancer cell line U87 after drug treatment; conditions: SGLT-2 inhibitor with gossypol and phenformin, FIGS. 3b, 3c
Method: The present inventors obtained the human lung cancer cell line A549, the pancreatic cancer cell line Mia Paca-2, the brain cancer cell line U87, and the colon cancer cell line SW480 from the American Type Culture Collection (ATCC). Each of the cell lines was cultured according to the ATCC guidelines in 10% FBS-containing RPMI 1640, DMEM, or Eagle's MEM medium supplemented with 1% penicillin-streptomycin (Gibco) in a 5% CO2 incubator (HERAcell 150i, Thermo Scientific, Waltham, MA, USA) at 37° C. and was used in the experiment.
At the same time, the number of cells in each sample was measured with a cell viability assay kit (Cell Counting Kit-8), and the measured value was calculated as a percentage of the number of cells in the negative control group to compare the number of cells between the samples. All experiments were repeated several times and the measured values were averaged.
According to the methods of Example 1 and Example 2, the brain cancer cell line U87 cells were cultured, and then each drug was administered to the cells, followed by analysis of the cell viability.

[4] = system: pancreatic cancer cell line Mia Paca-2; assay: Cell viability (Cell Counting Kit-8) of pancreatic cancer cell line Mia Paca-2 after drug treatment; conditions: SGLT-2 inhibitor with gossypol and/or phenformin, FIGS. 2b, 2c
Method: as §1
At the same time, the number of cells in each sample was measured with a cell viability assay kit (Cell Counting Kit-8), and the measured value was calculated as a percentage of the number of cells in the negative control group to compare the number of cells between the samples. All experiments were repeated several times and the measured values were averaged. […] The numerical values on the drawings according to all examples below are expressed as mean±standard error of the mean (SEM), and * indicates statistical significance (**P<0.01, ***P<0.001).
According to the methods of Example 1 and Example 2, the pancreatic cancer cell line Mia Paca-2 cells were cultured, and then each drug was administered to the cells, followed by analysis of the cell viability.

[5] = Comparative Example 3: empagliflozin 75 μM, FIG. 8a
[6] = Comparative Example 1: canagliflozin 50 μM, FIG. 6a

OC[C@H]1O[C@@H](c2ccc(Cl)c(Cc3ccc(O[C@H]4CCOC4)cc3)c2)[C@H](O)[C@@H](O)[C@@H]1O [empagliflozin]
oxygen consumption rate [1]: also low
size of the tumor spheroid cells (cell photographs) (U87 tumor spheroids; [5]): decreased
size of the cells (cell photographs) (U87 tumor spheroids): decreased compared to that in the control group

[H]/N=C(/N)N/C(=N/[H])NCCc1ccccc1 [phenformin]
size of the tumor spheroid cells (cell photographs) (U87 tumor spheroids; [6]): decreased
size of the tumor spheroid cells (cell photographs) (U87 tumor spheroids; Comparative Example 2: dapagliflozin 75 μM, FIG. 7a): decreased
size of the tumor spheroid cells (cell photographs) (U87 tumor spheroids; [5]): decreased

Cc1ccc([C@@H]2O[C@H](CO)[C@@H](O)[C@H](O)[C@H]2O)cc1Cc1ccc(-c2ccc(F)cc2)s1 [canagliflozin]
synergistic effect when administered in combination with gossypol and phenformin [2]: highest synergistic effect
cancer therapeutic effect of co-administration compared to SGLT-2 inhibitor alone [3]: better effect
cancer therapeutic effect of co-administration compared to SGLT-2 inhibitor alone [4]: more effective
size of the tumor spheroid cells (cell photographs) (U87 tumor spheroids; [6]): decreased
size of the cells (cell photographs) (U87 tumor spheroids): decreased compared to that in the control group; also recorded: most significant reduction in the cell size
